Data reported in ChEMBL document CHEMBL1201862, “PubChem BioAssay data set” (2004).
Activity calls are given as the source filed them.

Key:
[1] = NIH3T3 cell viability loss – ATP luminescence, mouse fibroblasts, counter-screen, dose response (AID 2010); type: functional, cell-based;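 also: cells exposed to compound for about 90 hours before reading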
[2] = Trypanosoma cruzi growth suppression in host cells – NIH3T3 host cells, beta-gal luminescence, confirmation (AID 2044); type: functional, cell-based;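 also: intracellular parasites grown in NIH/3T3 mouse fibroblasts as host cells; luminescent beta-galactosidase reporter signal from transgenic T. cruzi replicating inside host cells; inhibitors lower the luminescence signal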
Ephrin type-A receptor 4 = Ephrin type-A receptor 4 (Mus musculus, UniProt Q03137); test: EphA4 ligand-binding antagonists – biochemical, colorimetric, mouse EphA4, primary screen (AID 689); type: functional
Ephrin type-A receptor 4, sequence (Q03137 whole entry): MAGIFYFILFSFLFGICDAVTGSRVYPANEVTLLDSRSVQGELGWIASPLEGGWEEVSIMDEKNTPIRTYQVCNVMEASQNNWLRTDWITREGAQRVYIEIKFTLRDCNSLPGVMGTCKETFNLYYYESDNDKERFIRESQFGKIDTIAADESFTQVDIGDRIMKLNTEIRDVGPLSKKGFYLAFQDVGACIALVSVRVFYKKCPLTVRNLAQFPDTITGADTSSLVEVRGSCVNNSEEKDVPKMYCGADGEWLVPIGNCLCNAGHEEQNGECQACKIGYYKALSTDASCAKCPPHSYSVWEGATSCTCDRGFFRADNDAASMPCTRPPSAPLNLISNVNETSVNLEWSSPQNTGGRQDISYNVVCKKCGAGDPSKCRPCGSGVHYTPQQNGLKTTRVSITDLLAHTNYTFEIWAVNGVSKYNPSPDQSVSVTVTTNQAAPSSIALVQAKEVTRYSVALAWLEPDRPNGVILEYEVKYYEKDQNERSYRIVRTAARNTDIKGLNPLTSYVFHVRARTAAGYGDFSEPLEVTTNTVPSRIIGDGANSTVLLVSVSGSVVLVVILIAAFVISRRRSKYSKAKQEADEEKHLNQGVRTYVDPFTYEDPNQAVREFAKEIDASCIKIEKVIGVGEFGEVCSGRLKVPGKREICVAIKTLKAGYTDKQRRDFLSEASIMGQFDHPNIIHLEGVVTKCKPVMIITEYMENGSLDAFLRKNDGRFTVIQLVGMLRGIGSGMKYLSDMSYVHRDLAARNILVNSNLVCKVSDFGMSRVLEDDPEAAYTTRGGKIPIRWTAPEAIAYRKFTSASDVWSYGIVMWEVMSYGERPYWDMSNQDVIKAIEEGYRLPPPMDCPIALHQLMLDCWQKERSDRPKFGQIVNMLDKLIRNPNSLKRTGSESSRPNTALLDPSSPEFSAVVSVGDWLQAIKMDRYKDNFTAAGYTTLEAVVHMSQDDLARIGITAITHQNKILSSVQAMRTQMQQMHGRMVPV

[3] = target: T1, Voltage-gated inwardly rectifying potassium channel KCNH2 (Homo sapiens, UniProt Q12809); test: concentration-dependent hERG rescue from blockers – cell-based, thallium flux, dose response (AID 2121); type: ADME
T1 sequence (Q12809 whole entry): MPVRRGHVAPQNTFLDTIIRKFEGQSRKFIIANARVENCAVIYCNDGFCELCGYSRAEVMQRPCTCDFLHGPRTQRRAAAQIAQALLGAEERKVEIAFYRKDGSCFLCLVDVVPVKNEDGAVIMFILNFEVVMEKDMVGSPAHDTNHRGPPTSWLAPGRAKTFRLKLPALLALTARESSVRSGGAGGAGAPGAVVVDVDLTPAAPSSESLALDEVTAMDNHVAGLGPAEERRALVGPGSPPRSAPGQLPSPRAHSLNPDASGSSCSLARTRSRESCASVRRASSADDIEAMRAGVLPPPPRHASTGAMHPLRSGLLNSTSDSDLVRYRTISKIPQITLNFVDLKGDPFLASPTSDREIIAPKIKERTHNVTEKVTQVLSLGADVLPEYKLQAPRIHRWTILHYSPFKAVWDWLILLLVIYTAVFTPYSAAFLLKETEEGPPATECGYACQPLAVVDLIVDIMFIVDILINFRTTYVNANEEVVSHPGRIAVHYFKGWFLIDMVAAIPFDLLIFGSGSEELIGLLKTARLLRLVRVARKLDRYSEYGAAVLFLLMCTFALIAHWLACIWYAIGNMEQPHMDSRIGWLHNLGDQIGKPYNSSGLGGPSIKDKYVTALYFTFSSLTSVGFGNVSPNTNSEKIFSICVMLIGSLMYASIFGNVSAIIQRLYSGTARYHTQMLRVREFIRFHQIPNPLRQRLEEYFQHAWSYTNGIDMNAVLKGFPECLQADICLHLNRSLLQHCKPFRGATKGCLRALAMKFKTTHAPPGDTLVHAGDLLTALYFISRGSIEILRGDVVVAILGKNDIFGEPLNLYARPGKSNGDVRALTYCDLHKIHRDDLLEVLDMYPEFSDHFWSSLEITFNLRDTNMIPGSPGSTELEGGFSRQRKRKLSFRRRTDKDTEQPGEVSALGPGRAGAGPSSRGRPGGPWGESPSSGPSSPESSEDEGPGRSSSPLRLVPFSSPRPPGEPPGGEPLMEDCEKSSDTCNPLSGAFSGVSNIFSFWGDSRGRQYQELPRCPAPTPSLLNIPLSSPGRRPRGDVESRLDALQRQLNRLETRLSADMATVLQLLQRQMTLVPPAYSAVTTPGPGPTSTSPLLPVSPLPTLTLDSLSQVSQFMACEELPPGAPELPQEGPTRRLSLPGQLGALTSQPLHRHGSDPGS

cells [4] = type: functional, cell-based
[5] = alpha-synuclein stem-loop luciferase translation blockers – H4 neuroglioma cells, luminescence, confirmation (AID 1988); type: functional, cell-based
INS1 = test: INS-1E survival protection against cytokine death – cell-based, luminescence, retest, dose response (AID 449756); type: functional; conditions: Rattus norvegicus;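 also: cell death triggered by IL-1 beta plus TNF-alpha plus IFN-gamma mixture; protective hits raise ATP signal compared with cytokine alone wells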
HEK293 = test: EBV LMP1 TES2 canonical NF-kB signalling blockers – cell-based, HEK293, luciferase, cherry-pick, dose response (AID 588343); type: functional; conditions: Homo sapiens
[6] = luciferase reporter signal suppression in cells – H4 neuroglioma cells, luminescence, dose response (AID 1990); type: functional, cell-based
Nonstructural protein 1 = Nonstructural protein 1 (Influenza A virus, UniProt Q194T2); type: functional, Influenza A virus (A/California/07/2009(H1N1))
Nonstructural protein 1, sequence (Q194T2 whole entry): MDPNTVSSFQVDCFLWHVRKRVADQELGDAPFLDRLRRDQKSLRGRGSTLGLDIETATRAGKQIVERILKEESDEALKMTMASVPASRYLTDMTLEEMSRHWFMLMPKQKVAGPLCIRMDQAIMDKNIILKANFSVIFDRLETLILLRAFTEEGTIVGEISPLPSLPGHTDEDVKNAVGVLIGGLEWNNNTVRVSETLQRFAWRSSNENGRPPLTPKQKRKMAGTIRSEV

[7] = Luminescence Cell-Based Dose Response HTS to Identify Inhibitors of 5'UTR Stem-Loop Driven Prion Protein mRNA Translation in H4 Neuroglioblastoma Cells. [Related pubchem assays: 1827 (Project Summary), 1813 (Primary HTS)]; type: functional
cells [8] = type: functional, cell-based; remark: listed apart in the source
[9] = NIH-3T3 fibroblast cytotoxicity, dose response, cytotoxicity control, cell-based, fluorescence, Alamar Blue, secondary assay (AID 2327); type: functional;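 also: NIH-3T3 mouse fibroblasts cultured with fluconazole at 8 µg/mL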
[10] = fluconazole-exposed Candida albicans growth modulators – fluorescence, retest, confirmation (AID 2467); type: functional, cell-based
[11] = Luminescence Cell-Based Dose Retest to Confirm Inhibitors of Cancer Stem Cells. [Related pubchem assays (depositor defined):AID2717, AID2721]; type: functional; conditions: Homo sapiens
[12] = viability loss in Vero cells – cytotoxicity control for Vif-APOBEC3G degradation inhibitor project, dose response (AID 1117358); type: functional; conditions: Vero
[13] = target: T1, Voltage-gated inwardly rectifying potassium channel KCNH2; conditions: Potency
Cytochrome P450 1A2 = target: T2, Cytochrome P450 1A2 (Homo sapiens, UniProt P05177);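 also: PubChem cytochrome P450 panel assay, CYP1A2 panel member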
T2 sequence (P05177 whole entry): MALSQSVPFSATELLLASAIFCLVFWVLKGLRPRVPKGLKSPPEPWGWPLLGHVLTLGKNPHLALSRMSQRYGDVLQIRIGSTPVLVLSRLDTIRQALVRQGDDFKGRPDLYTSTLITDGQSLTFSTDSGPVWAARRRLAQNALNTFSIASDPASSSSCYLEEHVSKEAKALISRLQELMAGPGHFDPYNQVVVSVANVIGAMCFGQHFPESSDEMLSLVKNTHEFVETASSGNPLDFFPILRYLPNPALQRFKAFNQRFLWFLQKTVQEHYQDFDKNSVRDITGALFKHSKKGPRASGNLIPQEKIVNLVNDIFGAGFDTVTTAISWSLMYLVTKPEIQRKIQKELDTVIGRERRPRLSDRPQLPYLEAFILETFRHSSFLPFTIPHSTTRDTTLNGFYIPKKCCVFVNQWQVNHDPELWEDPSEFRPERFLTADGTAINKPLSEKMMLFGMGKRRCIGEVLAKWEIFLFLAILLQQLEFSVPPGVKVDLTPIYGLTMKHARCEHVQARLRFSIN

[14] = A Cell Based Secondary Assay To Explore Cytotoxicity of Compounds that Sensitize Mycobacterium Tuberculosis to Beta-Lactam Antibiotics.; type: functional
[15] = Shn3 3'UTR reporter signal decrease – cell-based, Clone20 osteoblasts, firefly luciferase, cherry-pick, set 2, Schnurri-3 inhibitor project, dose response (AID 720490); type: functional;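 also: actives lower the luminescence signal as inhibitors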
[16] = non-specific 3'UTR reporter inhibition in Clone20-Shn3RL – cell-based, Renilla luciferase, cherry-picked, counter-screen for Shn3 inhibitor project, dose response (AID 624133); type: functional
[17] = reduction of Shn3 3'UTR-driven luciferase in osteoblasts – cell-based, Clone20 osteoblasts, firefly luciferase, cherry-picked, dose response (AID 624132); type: functional;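 also: firefly luciferase luminescence from reporter carrying the Shn3 3'UTR in osteoblasts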
[18] = EF1alpha-driven Renilla reporter with control 3'UTR suppression – Clone20-Shn3RL cells, dual-Glo, cherry-pick, set 2, counter-screen for Shn3 3'UTR targeting project, dose response (AID 720724); type: functional, cell-based; conditions: Dual-Go Shn3RL
[19] = loss of viability in HepG2 cells – cell-based, CellTiter-Glo, cherry-picked, cytotoxicity control for Shn3 inhibitor project, dose response (AID 624134); type: functional
Cytochrome P450 3A4 = Cytochrome P450 3A4 (Homo sapiens, UniProt P08684);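 also: CYP3A4 tested as one member of a cytochrome P450 panel screen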
Cytochrome P450 3A4, sequence (P08684 whole entry): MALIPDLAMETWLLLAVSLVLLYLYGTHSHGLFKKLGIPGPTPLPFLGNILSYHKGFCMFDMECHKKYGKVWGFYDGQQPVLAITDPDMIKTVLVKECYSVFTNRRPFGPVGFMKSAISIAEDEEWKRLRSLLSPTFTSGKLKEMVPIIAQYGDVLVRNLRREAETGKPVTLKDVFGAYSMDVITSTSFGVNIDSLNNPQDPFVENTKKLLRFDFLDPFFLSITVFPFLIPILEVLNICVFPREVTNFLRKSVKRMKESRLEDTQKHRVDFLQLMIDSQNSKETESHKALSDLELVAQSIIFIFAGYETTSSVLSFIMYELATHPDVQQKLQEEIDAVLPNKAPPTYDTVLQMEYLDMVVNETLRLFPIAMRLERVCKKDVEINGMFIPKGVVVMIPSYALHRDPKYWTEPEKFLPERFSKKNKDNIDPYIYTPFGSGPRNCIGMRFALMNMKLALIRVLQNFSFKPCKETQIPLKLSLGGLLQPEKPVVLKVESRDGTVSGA

[20] = CellTiter-Glo luminescence survival assay, SW480 colon tumor line, concentration-response curve, half-maximal inhibitory concentration (AID 1117338); type: functional
[21] = cytotoxicity toward HCT116 cells – cell-based, CellTiter-Glo luminescence, IC50, dose response (AID 1117332); type: functional; conditions: HCT-116
[22] = Reduced DLD-1 viability, concentration-response, CellTiter-Glo luminescence (AID 1117352); type: functional
[23] = cytotoxicity toward Colo320 cells – cell-based, CellTiter-Glo luminescence, IC50, dose response (AID 1117334); type: functional; conditions: COLO 320
[24] = SNU-C1 cell viability reduction, dose response, CellTiter-Glo luminescence (AID 1117323); type: functional, cell-based
[25] = cytotoxicity toward HT-29 cells – cell-based, CellTiter-Glo luminescence, IC50, dose response (AID 1117330); type: functional
[26] = RKO cell viability reduction, dose response, CellTiter-Glo luminescence (AID 1117322); type: functional
[27] = rise of 2N DNA cells, HeLa – IC50, dose response (AID 1117349); type: functional, cell-based
[28] = HCT116 cell viability decrease, GSK3B pretreatment – CellTiter-Glo, IC50, dose response (AID 1117339); type: functional; conditions: HCT-116
[29] = rise of 4N DNA cells, HeLa – IC50, dose response (AID 1117351); type: functional, cell-based

Cc1ccc(C)c(N(CC(=O)N/N=C/c2ccc(-c3ccc([N+](=O)[O-])cc3)o2)S(=O)(=O)c2ccccc2)c1
EC50 [1]: > 30 µM (not active)
EC50 [2]: 1.65 µM (active)
IC50 (Ephrin type-A receptor 4): > 100 µM (not active)

CC(C)c1ccc(/C=N/n2c(S)nnc2COc2ccccc2)cc1
EC50 [3]: 7.6 µM (active)

Oc1ccccc1/C=N/Nc1nccnc1Cl
EC50 (cells [4]): 7.95 µM (active)
EC50 [5]: 4.65 µM (active)
AC50 (INS1): 0.747 µM (active)
AC50 (HEK293): 14.9 µM (active)
EC50 [6]: 9.08 µM (active)
IC50 (Nonstructural protein 1): 15.9 µM (active)
EC50 [7]: 9.43 µM (active)
EC50 (cells [8]): 9.82 µM (active)
EC50 [9]: 38.5 µM (active)
EC50 [10]: 1.06 µM (active)
AC50 [11]: 6.46 µM (active)
CC50 [12]: 8.61 µM (active)

Nc1ncnc2c1c(-c1ccc(Oc3ccccc3)cc1)cn2C1CCCC1
AC50 [13]: 5.01 µM (inconclusive)
AC50 (Cytochrome P450 1A2): 15.8 µM (inconclusive)
CC50 [14]: 0.802 µM (active)
AC50 [15]: 4.83 µM (active)
AC50 [16]: 31.7 µM (active)
AC50 [17]: 0.658 µM (active)
AC50 [11]: 3.03 µM (active)
AC50 [18]: 56.8 µM (active)
AC50 [19]: > 70 µM (inactive)
AC50 (Cytochrome P450 3A4): inconclusive

Cc1cc(O)c2c3c4c(cc(O)c13)C(C)(C)C(=O)c1c(O)cc(O)c(c1-4)C2=O [HELIOMYCIN]
IC50 [20]: 0.058 µM (active)
IC50 [21]: 0.0775 µM (active)
IC50 [22]: 0.0709 µM (active)
IC50 [23]: 0.082 µM (active)
IC50 [24]: 0.332 µM (active)
IC50 [25]: 3.01 µM (active)
IC50 [26]: 0.0754 µM (active)
IC50 [27]: > 10 µM (inactive)
IC50 [28]: 0.0574 µM (active)
IC50 [29]: > 10 µM (inactive)
